According to patent publication US20220023258A1, “METHODS OF TREATING CONDITIONS RELATED TO THE S1P1 RECEPTOR” (Arena Pharmaceuticals, Inc., priority 2018, published 2022):
Where a name gives a salt, the structure may show the parent alone.

System: healthy adult subjects
Assay: Multiple ascending dose study: heart rate, blood pressure, QTc
Assay type: in vivo, human
Details: for Maximum post-dose QTc, Change from Baseline Mean / Maximum post-dose QTc, Change from Baseline Median / Maximum post-dose QTc, Change from Baseline Min, Max / Maximum post-dose QTc, On Treatment Mean (SD): Day 1 to Day 23; for Minimum post-dose Diastolic BP, Change from Baseline Mean / Minimum post-dose Diastolic BP, Change from Baseline Median / Minimum post-dose Diastolic BP, Change from Baseline Min, Max / Minimum post-dose Diastolic BP, On Treatment Mean (SD) / Minimum post-dose Heart Rate, Change from Baseline Mean / Minimum post-dose Heart Rate, Change from Baseline Median / Minimum post-dose Heart Rate, Change from Baseline Min, Max / Minimum post-dose Heart Rate, On Treatment Mean (SD) / Minimum post-dose Systolic BP, Change from Baseline Mean / Minimum post-dose Systolic BP, Change from Baseline Median / Minimum post-dose Systolic BP, Change from Baseline Min, Max / Minimum post-dose Systolic BP, On Treatment Mean: Day 1 to Day 28
[1] = 0.35 mg for 7 days then 2.0 mg for 14 days
[2] = 0.5 mg for 7 days then 3.0 mg for 14 days

Procedure: A randomized, double-blind, placebo-controlled, sequential, ascending, multiple dose study to assess the safety, tolerability, and pharmacokinetics of the L-arginine salt of Compound 1 administered to healthy adult subjects was conducted. This study was designed to evaluate the safety, tolerability, pharmacokinetics, and pharmacodynamics of the L-arginine salt of Compound 1.
Cohort 1 was dosed with 0.7 mg (by administering two 0.35 mg formulations) for 21 days. Cohort 2 was dosed with 1.35 mg (by administering both a 0.35 mg formulation and a 1 mg formulation) for 21 days. Cohort 3 was dosed with 2.0 mg for 21 days. Cohort 4 was dosed with 0.35 mg for 7 days and then with 2.0 mg for 14 days. Cohort 5 was dosed with 0.5 for 7 days and then with 3.0 mg (by administering both a 1 mg formulation and a 2 mg formulation) for 14 days.
The following safety assessments were conducted: physical examinations with ophthalmoscopy, clinical laboratory tests (serum chemistry, coagulation, and urinalysis), vital signs, continuous telemetry (12 lead ECG), safety ECGs, pulmonary function testing (PFT), serum protein electrophoresis (SPEP) and serum immunoelectrophoresis (IEP), and adverse event reporting.

Structure (SMILES): O=C(O)C[C@H]1CCc2c1[nH]c1ccc(OCc3ccc(C4CCCC4)c(C(F)(F)F)c3)cc21 [L-arginine salt of Compound 1]
- Maximum post-dose QTc, Change from Baseline Mean [1]: −0.10 MS
- Maximum post-dose QTc, Change from Baseline Median [1]: 0.50 MS
- Maximum post-dose QTc, Change from Baseline Min, Max [1]: −19.00 to 17.00 MS
- Maximum post-dose QTc, On Treatment Mean (SD) [1]: 411.10 (19.88) MS
- Maximum post-dose QTc, Change from Baseline Mean [2]: 5.60 MS
- Maximum post-dose QTc, Change from Baseline Median [2]: 5.00 MS
- Maximum post-dose QTc, Change from Baseline Min, Max [2]: −5.00 to 15.00 MS
- Maximum post-dose QTc, On Treatment Mean (SD) [2]: 425.10 (13.90) MS
- Maximum post-dose QTc, Change from Baseline Mean (0.7 mg for 21 days): 3.60 MS
- Maximum post-dose QTc, Change from Baseline Median (0.7 mg for 21 days): 3.50 MS
- Maximum post-dose QTc, Change from Baseline Min, Max (0.7 mg for 21 days): −8.00 to 16.00 MS
- Maximum post-dose QTc, On Treatment Mean (SD) (0.7 mg for 21 days): 418.40 (16.56) MS
- Maximum post-dose QTc, Change from Baseline Mean (1.35 mg for 21 days): 8.20 MS
- Maximum post-dose QTc, Change from Baseline Median (1.35 mg for 21 days): 6.00 MS
- Maximum post-dose QTc, Change from Baseline Min, Max (1.35 mg for 21 days): −5.00 to 25.00 MS
- Maximum post-dose QTc, On Treatment Mean (SD) (1.35 mg for 21 days): 423.60 (16.14) MS
- Maximum post-dose QTc, Change from Baseline Mean (2.0 mg for 21 days): 4.00 MS
- Maximum post-dose QTc, Change from Baseline Median (2.0 mg for 21 days): 4.50 MS
- Maximum post-dose QTc, Change from Baseline Min, Max (2.0 mg for 21 days): −8.00 to 13.00 MS
- Maximum post-dose QTc, On Treatment Mean (SD) (2.0 mg for 21 days): 421.20 (10.61) MS
- Minimum post-dose Diastolic BP, Change from Baseline Mean [1]: −7.90 mmHg
- Minimum post-dose Diastolic BP, Change from Baseline Median [1]: −6.00 mmHg
- Minimum post-dose Diastolic BP, Change from Baseline Min, Max [1]: −19.00 to −1.00 mmHg
- Minimum post-dose Diastolic BP, On Treatment Mean (SD) [1]: 50.80 (5.65) mmHg
- Minimum post-dose Heart Rate, Change from Baseline Mean [1]: −10.60 BPM
- Minimum post-dose Heart Rate, Change from Baseline Median [1]: −7.00 BPM
- Minimum post-dose Heart Rate, Change from Baseline Min, Max [1]: −35.00 to 3.00 BPM
- Minimum post-dose Heart Rate, On Treatment Mean (SD) [1]: 52.00 (4.74) BPM
- Minimum post-dose Systolic BP, Change from Baseline Mean [1]: −13.00 mmHg
- Minimum post-dose Systolic BP, Change from Baseline Median [1]: −13.00 mmHg
- Minimum post-dose Systolic BP, Change from Baseline Min, Max [1]: −28.00 to 0.00 mmHg
- Minimum post-dose Systolic BP, On Treatment Mean [1]: 94.30 mmHg
- Minimum post-dose Diastolic BP, Change from Baseline Mean [2]: −6.30 mmHg
- Minimum post-dose Diastolic BP, Change from Baseline Median [2]: −7.00 mmHg
- Minimum post-dose Diastolic BP, Change from Baseline Min, Max [2]: −13.00 to 3.00 mmHg
- Minimum post-dose Diastolic BP, On Treatment Mean (SD) [2]: 50.20 (4.21) mmHg
- Minimum post-dose Heart Rate, Change from Baseline Mean [2]: −7.30 BPM
- Minimum post-dose Heart Rate, Change from Baseline Median [2]: −6.50 BPM
- Minimum post-dose Heart Rate, Change from Baseline Min, Max [2]: −14.00 to −2.00 BPM
- Minimum post-dose Heart Rate, On Treatment Mean (SD) [2]: 53.80 (4.73) BPM
- Minimum post-dose Systolic BP, Change from Baseline Mean [2]: −7.80 mmHg
- Minimum post-dose Systolic BP, Change from Baseline Median [2]: −5.00 mmHg
- Minimum post-dose Systolic BP, Change from Baseline Min, Max [2]: −18.00 to 5.00 mmHg
- Minimum post-dose Systolic BP, On Treatment Mean [2]: 93.20 mmHg
- Minimum post-dose Diastolic BP, Change from Baseline Mean (0.7 mg for 21 days): −6.10 mmHg
- Minimum post-dose Diastolic BP, Change from Baseline Median (0.7 mg for 21 days): −6.00 mmHg
- Minimum post-dose Diastolic BP, Change from Baseline Min, Max (0.7 mg for 21 days): −16.00 to 2.00 mmHg
- Minimum post-dose Diastolic BP, On Treatment Mean (SD) (0.7 mg for 21 days): 56.00 (8.31) mmHg
- Minimum post-dose Heart Rate, Change from Baseline Mean (0.7 mg for 21 days): −5.50 BPM
- Minimum post-dose Heart Rate, Change from Baseline Median (0.7 mg for 21 days): −5.00 BPM
- Minimum post-dose Heart Rate, Change from Baseline Min, Max (0.7 mg for 21 days): −12.00 to −1.00 BPM
- Minimum post-dose Heart Rate, On Treatment Mean (SD) (0.7 mg for 21 days): 54.20 (4.05) BPM
- Minimum post-dose Systolic BP, Change from Baseline Mean (0.7 mg for 21 days): −9.70 mmHg
- Minimum post-dose Systolic BP, Change from Baseline Median (0.7 mg for 21 days): −9.50 mmHg
- Minimum post-dose Systolic BP, Change from Baseline Min, Max (0.7 mg for 21 days): −16.00 to −1.00 mmHg
- Minimum post-dose Systolic BP, On Treatment Mean (0.7 mg for 21 days): 96.10 mmHg
- Minimum post-dose Diastolic BP, Change from Baseline Mean (1.35 mg for 21 days): −5.20 mmHg
- Minimum post-dose Diastolic BP, Change from Baseline Median (1.35 mg for 21 days): −7.50 mmHg
- Minimum post-dose Diastolic BP, Change from Baseline Min, Max (1.35 mg for 21 days): −11.00 to 6.00 mmHg
- Minimum post-dose Diastolic BP, On Treatment Mean (SD) (1.35 mg for 21 days): 53.70 (4.03) mmHg
- Minimum post-dose Heart Rate, Change from Baseline Mean (1.35 mg for 21 days): −6.20 BPM
- Minimum post-dose Heart Rate, Change from Baseline Median (1.35 mg for 21 days): −5.00 BPM
- Minimum post-dose Heart Rate, Change from Baseline Min, Max (1.35 mg for 21 days): −18.00 to 3.00 BPM
- Minimum post-dose Heart Rate, On Treatment Mean (SD) (1.35 mg for 21 days): 54.40 (4.09) BPM
- Minimum post-dose Systolic BP, Change from Baseline Mean (1.35 mg for 21 days): −8.90 mmHg
- Minimum post-dose Systolic BP, Change from Baseline Median (1.35 mg for 21 days): −8.00 mmHg
